What was measured:
lung and spleen = test: Luciferase mRNA expression in mouse tissues after intravenous administration (bioluminescence); format: in vivo, Balb/c mice; settings: 6 hours, DOTMA/DOPE w/w=23:1 to mRNA, dendrimers NP=0.6:1, FIG. 11
Description: All animal procedures were conducted following the Animal Research Reporting of In Vivo Experiments and approved by the UK Home Office for the conduct of regulated procedures under license. For the data underlying FIG. 11, Balb/c mice aged 4 weeks were purchased from Jackon's Laboratory and left to acclimate in the new housing environment for 1-week upon their arrival. All mice were weighed and warmed for 15 min at 37 C in a heating chamber. The formulations were delivered intravenously (5 mL/kg) via the tail vein using 30 G insulin syringes (BD biosciences).
All mice were imaged 6 hours post injection. BLI was performed using an IVIS Lumina II (Perkin Elmer) imaging system. Mice were administered D-luciferin (GoldBio) at a dose of 10 uL/g. Mice were anaesthetised in a chamber with 2.5% isoflurane and then placed on a heated imaging platform while being maintained on 2.5% isoflurane. For the data underlying FIG. 11, mice were imaged 10 min post administration of D-luciferin with an exposure time set at 45 sec to ensure the signal acquired was within an effective detection range (binning medium). Bioluminescence signal was quantified by measuring photon flux (photons/s) using the Living Image software (Perkin Elmer). […] The organs were placed in the centre of imaging platform (Lumina II system) and signal was measured using the acquisition settings detailed above. […]

[1] = system: macrophage-polarised primary bone marrow derived monocytes; test: eGFP mRNA transfection of macrophage-polarised primary mouse bone marrow derived monocytes, flow cytometry; format: cell-based; settings: GSCG1,2-RHL NP=0.6:1, GSCG1,2-RL, 3-LR NP=0.16:1, GSCG1,RL, 2-LR NP=8:1, DOTMA:DOPE w/w 10:1, lipid-only DOTMA/DOPE w/w 3.2:1, FIG. 2
Description: BMDM cells were isolated using the StemCell Tech EasySep Mouse Monocyte Isolation Kit from mouse bone marrow cell suspension. The cells were resuspended in complete medium (DMEM+1% glutamax+10% heat inactivated FBS+1% Pen/Strep) enriched with 50 ng/ml murine M-CSF (1:1000 of 50 μg/ml stock) at 1E+6 cells/mi. 2 million cells (i.e. 2 mL) was seeded in each well of 6-well plate(s). The plate was incubated at 37° C. for 4 days. Half media exchange was performed using complete media enriched with […] murine M-CSF and 40 ng/ml murine IL-4. Cells were then harvested the next day (day 5) by washing cells with PBS and a 10 minute incubation with 5 mM EDTA (diluted in PBS) at 37° C. followed by plate tapping and resuspension. […]
Data were collected using a BD LSRFortessa I analyser running […] software (Beckton Dickinson). All collected data were analysed using FlowJo 10.0 software.
Transfection efficiency of macrophage-polarised primary bone marrow derived monocytes using various peptide dendrimer/lipid nanoparticles was assessed and compared to lipid-only nanoparticles (LPX-RNA). Each nanoparticle, with or without dendrimer, included eGFP mRNA to allow analysis of absolute numbers of cells transfected to be assessed by flow cytometry. […]

With (RHL)4(KRHL)2KGSC-NH2 [GSCG1,2-RHL] the “delivery of luciferase mRNA cargo to lung and spleen (bioluminescence)” value (lung and spleen) was “further improved” and the transfection efficiency [1] was “approximately 35%”.

Reference: patent US20260014278A1, “HYBRID PEPTIDE DENDRIMER SYSTEMS AND EXTRAHEPATIC DELIVERY” (NUNTIUS THERAPEUTICS LIMITED, priority 2022, published 2026)
